What was measured:
h5-HT4 = h5-HT4 (Homo sapiens, UniProt Q13639); assay: 5-HT4R intrinsic activity functional assay; conditions: h5-HT4, functional assay at CEREP
5-HT4R [1] = target: 5-HT4R (Mus musculus, UniProt P97288); assay: In vivo competition with [125I]1, ex vivo autoradiography of mouse brain
5-HT4R [2] = target: 5-HT4R (Rattus norvegicus, UniProt Q62758); assay: In vitro autoradiographic competition with [125I]1 on rat brain sections; type: binding
[3] = SPECT tracer ref 19; cited from earlier work

Chain of h5-HT4 (Q13639 whole entry): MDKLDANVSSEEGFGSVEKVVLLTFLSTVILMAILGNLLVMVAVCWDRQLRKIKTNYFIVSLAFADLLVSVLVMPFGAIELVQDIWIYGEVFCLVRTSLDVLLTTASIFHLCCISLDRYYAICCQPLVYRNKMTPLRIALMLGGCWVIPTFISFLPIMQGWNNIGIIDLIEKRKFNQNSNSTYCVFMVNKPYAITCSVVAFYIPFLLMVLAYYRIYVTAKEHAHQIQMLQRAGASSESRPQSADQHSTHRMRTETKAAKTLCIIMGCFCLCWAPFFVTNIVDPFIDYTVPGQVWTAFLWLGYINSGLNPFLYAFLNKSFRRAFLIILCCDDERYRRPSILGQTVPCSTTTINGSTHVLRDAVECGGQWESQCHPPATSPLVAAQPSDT
Chain of 5-HT4R (Mus musculus, UniProt P97288) (P97288 whole entry): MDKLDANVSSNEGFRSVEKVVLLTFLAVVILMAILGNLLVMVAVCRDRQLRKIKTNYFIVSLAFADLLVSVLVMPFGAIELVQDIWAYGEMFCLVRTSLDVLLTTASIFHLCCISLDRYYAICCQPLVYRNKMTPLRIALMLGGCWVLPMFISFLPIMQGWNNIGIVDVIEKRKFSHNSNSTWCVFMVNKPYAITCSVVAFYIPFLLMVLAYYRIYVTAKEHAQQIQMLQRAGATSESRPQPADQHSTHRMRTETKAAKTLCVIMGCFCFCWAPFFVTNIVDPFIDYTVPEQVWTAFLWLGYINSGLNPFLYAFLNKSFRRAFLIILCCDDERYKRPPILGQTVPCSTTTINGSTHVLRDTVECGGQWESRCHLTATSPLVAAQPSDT
Chain of 5-HT4R (Rattus norvegicus, UniProt Q62758) (Q62758 whole entry): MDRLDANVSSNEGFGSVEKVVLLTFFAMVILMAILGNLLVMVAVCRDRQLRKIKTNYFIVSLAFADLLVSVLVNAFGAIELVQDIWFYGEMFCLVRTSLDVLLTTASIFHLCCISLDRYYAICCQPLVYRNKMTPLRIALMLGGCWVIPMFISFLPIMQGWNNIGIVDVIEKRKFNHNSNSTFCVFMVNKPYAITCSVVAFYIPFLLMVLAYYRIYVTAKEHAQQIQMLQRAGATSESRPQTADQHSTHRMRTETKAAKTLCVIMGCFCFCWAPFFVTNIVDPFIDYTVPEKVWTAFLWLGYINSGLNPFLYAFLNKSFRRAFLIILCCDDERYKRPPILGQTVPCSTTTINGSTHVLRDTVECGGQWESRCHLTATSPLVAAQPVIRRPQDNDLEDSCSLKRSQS

## CCCN1CCC(COc2nc3c(F)cccc3c3ncccc23)CC1 [Compound 4v, 7-Fluoro-5-(1-propylpiperidin-4-yl)methyloxybenzo[h]-1,6-naphthyridine]
h5-HT4
  efficacy (intrinsic activity): full antagonists

## CCCN1CCC(COc2nc3c(I)cccc3c3ccccc23)CC1 [Compound 11a, 4-Iodo-6-(1-propylpiperidin-4-yl)methyloxyphenanthridine]
h5-HT4
  efficacy (intrinsic activity): full antagonists

## CCCN1CCC(COc2nc3c(I)cccc3c3ncccc23)CC1 [Compound 11b, 7-Iodo-5-(1-propylpiperidin-4-yl)methyloxybenzo[h]-1,6-naphthyridine]
h5-HT4
  efficacy (intrinsic activity): full antagonists

## Fc1cccc2c1nc(OCC1CCN(CCCc3ccc(I)cc3)CC1)c1cccnc12 [Compound 11d, 7-Fluoro-5-{1-[3-(4-iodophenyl)propyl]piperidin-4-yl}methyloxybenzo[h]-1,6-naphthyridine]
5-HT4R [1]; i.v. 50 µg/kg
  blood brain barrier crossing: able to cross the blood brain barrier
5-HT4R [1]; i.v. co-injection of 50 µg/kg 11d, compared to [125I]1 alone
  specific binding of [125I]1 ex vivo: markedly reduced
5-HT4R [2]; 10 pM of 11d with 100 pM [125I]1, rat brain sections
  5-HT4R-specific [125I]1 radioactivity in autoradiograms: decrease in the 5-HT4R-specific radioactivity
5-HT4R [2]; 1 nM of 11d with 100 pM [125I]1, rat brain sections
  5-HT4R-specific [125I]1 radioactivity in autoradiograms: almost complete abolishment of the signal
h5-HT4
  efficacy (intrinsic activity): full antagonists

## CCCCN1CCC(COC(=O)c2cc([123I])c(N)c3c2OCCO3)CC1 [[^123I]1, (1-butylpiperidin-4-yl)methyl-8-amino-7-iodo[^123I]-2,3-dihydrobenzo[b][1,4]dioxine-5-carboxylate]
[3]
  brain penetration: low brain penetration
  metabolism: rapid metabolism

Reference: publication PMC3509320 (Journal of medicinal chemistry, 2012)
